Test results: patent US11358987B2, “Albicidin derivatives, their use and synthesis” (priority 2018, dated 2022)
Converted amounts (≈) assume the structure as drawn. Read-outs that look alike come from different tables or passages of the source.

Columns and labels:
Test in all cases: Microdilution assay, MIC determination (CLSI M07-A9)
Assay type in all cases: cell-based
E. coli DSM1116 = settings: Escherichia coli
Protocol: (§1) E. coli DSM 1116; E. coli BW25113; S. typhimurium TA100; Bacillus subtilis DSM10; M. phlei DSM750 and Micrococcus luteus DSM1790
(§2) The tests were performed using the micro dilution method.
(§3) The determination of MIC values was performed according to the ninth edition of the Approved Standard M07-A9 (CLSI. Methods for Dilution Antimicrobial Susceptibility Tests for Bacteria That Grow Aerobically; Approved Standard-Ninth Edition. CLSI document M07-A9. Wayne, Pa.: Clinical and Laboratory Standards Institute; 2012.)
(§4) The test was carried out for the six different bacterial strains 20 μL of cryo stock of each strain were inoculated in 20 mL of LB media (Lysogeny broth: 10 g/L peptone, 5 g/L yeast extract, 5 g/L NaCl) followed by incubation over night at 37° C., 200 rpm. The test inoculum was adjusted by the 0.5 McFarland Standard (OD625 from 0.08 to 0.1). Within 15 min of preparation, the adjusted inoculum suspension was diluted in MHBII media (BBL™ Mueller-Hinton Broth II, Becton, Dickinson and Company, New Jersey/USA) so that each well contained approximately 5×10^5 CFU/mL in a final volume of 100 μL. 95 μL of the inoculum were applied per well and 5 μL of the (diluted) antibiotic substance were added.
(§5) Previously the dry antibiotic compounds were dissolved in DMSO (100%) with a concentration of 2560 μg/mL and the resulting stock solutions were further diluted in DMSO (100%). 5 μL of each antibiotic dilution were applied to the microdilution tray to reach final concentrations of 64 μg/mL to 0.008 μg/mL. One row of each well plate was left as a growth control without antibiotic substances and another row of the microdilution tray was used as sterility control (only MHB II-media). The antimicrobial effect of the solvent (DMSO) was tested by adding 5 μL DMSO to several wells without antibiotics.
(§6) Purity check and cell titer control were performed according to International Standard M07-A9 on Mueller-Hinton II Agar (Mueller Hinton II Broth, 15 g/L agar-agar).
(§7) Both microdilution trays and agar plates were incubated at 37° C. for 20 h and subsequently analyzed visually.

B. subtilis DSM10 = settings: Bacillus subtilis
Protocol: as §1, §2, §3, §4, §5, §6, §7

M. luteus DSM1790 = settings: Micrococcus luteus
Protocol: as §1, §2, §3, §4, §5, §6, §7

M. phlei DSM750 = settings: Mycolicibacterium phlei
Protocol: as §1, §2, §3, §4, §5, §6, §7

E. coli BW25113 = settings: Escherichia coli
Protocol: as §1, §2, §3, §4, §5, §6, §7

S. typhimurium TA100 = settings: Salmonella enterica, 20 h
Protocol: as §1, §2, §3, §4, §5, §6, §7

[1] = E. coli DSM1116, 37° C., 20 h, MHBII media, read-out: MIC
[2] = B. subtilis DSM10, 37° C., 20 h, MHBII media, read-out: MIC
[3] = M. luteus DSM1790, 37° C., 20 h, MHBII media, read-out: MIC
[4] = M. phlei DSM750, 37° C., 20 h, MHBII media, read-out: MIC
[5] = E. coli BW25113, 37° C., 20 h, MHBII media, read-out: MIC
[6] = S. typhimurium TA100, 37° C., MHBII media, read-out: MIC

| Structure (SMILES) | MIC (E. coli DSM1116; DSM1116, 20 h) [µg/mL] | MIC (B. subtilis DSM10; DSM10, 20 h) [µg/mL] | MIC (M. luteus DSM1790; DSM1790, 20 h) [µg/mL] | MIC (M. phlei DSM750; DSM750, 20 h) [µg/mL] | MIC (E. coli BW25113; BW25113, 20 h) [µg/mL] | MIC (S. typhimurium TA100; TYPHIMURIUM) [µg/mL] | MIC (E. coli DSM1116; [1]) [µg/mL] | MIC (B. subtilis DSM10; [2]) [µg/mL] | MIC (M. luteus DSM1790; [3]) [µg/mL] | MIC (M. phlei DSM750; [4]) [µg/mL] | MIC (E. coli BW25113; [5]) [µg/mL] | MIC (S. typhimurium TA100; [6]) [µg/mL] |
| --- | --- | --- | --- | --- | --- | --- | --- | --- | --- | --- | --- | --- |
| COc1c(NC(=O)c2ccc(NC(=O)c3ccc(NC(=O)[C@H](CC#N)NC(=O)c4ccc(NC(=O)/C(C)=C/c5ccc(O)cc5)cc4)cc3)c(OC)c2O)ccc(C(=O)O)c1O [Albicidin] | 63 (≈ 74.7 µM) | 250 (≈ 297 µM) | 1000 (≈ 1190 µM) | 2000 (≈ 2370 µM) | 63 (≈ 74.7 µM) | 63 (≈ 74.7 µM) | – | – | – | – | – | – |
| COc1c(NC(=O)c2ccc(NC(=O)c3ccc(NC(=O)C(Cc4cnn[nH]4)NC(=O)c4ccc(NC(=O)/C(C)=C/c5ccc(O)cc5)cn4)cc3)c(OC)c2O)ccc(C(=O)O)c1O (stereo not drawn) [Compound 1] | 16 (≈ 18.1 µM) | 250 (≈ 282 µM) | 500 (≈ 564 µM) | 2000 (≈ 2260 µM) | 16 (≈ 18.1 µM) | 16 (≈ 18.1 µM) | – | – | – | – | – | – |
| COc1c(NC(=O)c2ccc(NC(=O)c3ccc(NC(=O)C(Cc4cnn[nH]4)NC(=O)c4ccc(NC(=O)/C(C)=C/c5ccc(O)cc5)nc4)cc3)c(OC)c2O)ccc(C(=O)O)c1O (stereo not drawn) [Compound 2] | – | – | – | – | – | – | 31 (≈ 35 µM) | 500 (≈ 564 µM) | 2000 (≈ 2260 µM) | 2000 (≈ 2260 µM) | 16 (≈ 18.1 µM) | 16 (≈ 18.1 µM) |
| COc1c(NC(=O)c2ccc(NC(=O)c3ccc(NC(=O)C(Cc4cnn[nH]4)NC(=O)c4ccc(NC(=O)/C(C)=C/c5ccc(O)cc5)nn4)cc3)c(OC)c2O)ccc(C(=O)O)c1O (stereo not drawn) [Compound 3] | – | – | – | – | – | – | 31 (≈ 35 µM) | 1000 (≈ 1130 µM) | 4000 (≈ 4510 µM) | 2000 (≈ 2260 µM) | 31 (≈ 35 µM) | 31 (≈ 35 µM) |
| COc1c(NC(=O)c2ccc(NC(=O)c3ccc(NC(=O)C(Cc4cnn[nH]4)NC(=O)c4ccc(NC(=O)/C(C)=C/c5ccc(O)cc5)cn4)cc3O)c(OC)c2O)ccc(C(=O)O)c1O (stereo not drawn) [Compound 4] | – | – | – | – | – | – | 31 (≈ 34.4 µM) | 1000 (≈ 1110 µM) | 2000 (≈ 2220 µM) | 2000 (≈ 2220 µM) | 31 (≈ 34.4 µM) | 16 (≈ 17.7 µM) |
| COc1c(NC(=O)c2ccc(NC(=O)c3ccc(NC(=O)C(Cc4cnn[nH]4)NC(=O)c4ccc(NC(=O)/C(C)=C/c5ccc(F)cc5)cn4)cc3O)c(OC)c2O)ccc(C(=O)O)c1O (stereo not drawn) [Compound 5] | – | – | – | – | – | – | 16 (≈ 17.7 µM) | 250 (≈ 277 µM) | 2000 (≈ 2210 µM) | 2000 (≈ 2210 µM) | 63 (≈ 69.7 µM) | 16 (≈ 17.7 µM) |
| COc1nc(C(=O)Nc2ccc(C(=O)O)c(O)c2OC)ccc1NC(=O)c1ccc(NC(=O)C(Cc2cnn[nH]2)NC(=O)c2ccc(NC(=O)/C(C)=C/c3ccc(O)cc3)cc2)cc1 (stereo not drawn) [Compound 6] | – | – | – | – | – | – | 16 (≈ 18.4 µM) | 250 (≈ 287 µM) | 125 (≈ 144 µM) | 1000 (≈ 1150 µM) | 16 (≈ 18.4 µM) | 31 (≈ 35.6 µM) |
| COc1nc(C(=O)O)ccc1NC(=O)c1ccc(NC(=O)c2ccc(NC(=O)C(Cc3cnn[nH]3)NC(=O)c3ccc(NC(=O)/C(C)=C/c4ccc(O)cc4)cc3)cc2)c(OC)c1O (stereo not drawn) [Compound 7] | – | – | – | – | – | – | 250 (≈ 287 µM) | 2000 (≈ 2300 µM) | > 8000 | 8000 (≈ 9200 µM) | 500 (≈ 575 µM) | 250 (≈ 287 µM) |
| COc1c(NC(=O)c2ccc(NC(=O)C(Cc3cnn[nH]3)NC(=O)c3ccc(NC(=O)/C(C)=C/c4ccc(O)cc4)cn3)cc2)ccc(C(=O)Nc2ccc(C(=O)O)c(O)c2OCCO)c1O (stereo not drawn) [Compound 8] | – | – | – | – | – | – | 63 (≈ 68.8 µM) | 2000 (≈ 2180 µM) | 2000 (≈ 2180 µM) | 2000 (≈ 2180 µM) | 125 (≈ 136 µM) | 31 (≈ 33.8 µM) |
| COc1c(NC(=O)c2ccc(NC(=O)c3ccc(NC(=O)C(Cc4cnn[nH]4)NC(=O)c4ccc(NC(=O)c5ccc(F)cc5)cn4)cc3O)c(OC)c2O)ccc(C(=O)O)c1O (stereo not drawn) [Compound 9] | – | – | – | – | – | – | 63 (≈ 72.9 µM) | 1000 (≈ 1160 µM) | > 8000 | 1000 (≈ 1160 µM) | 125 (≈ 145 µM) | 310 (≈ 359 µM) |
| COc1c(NC(=O)c2ccc(NC(=O)c3ccc(NC(=O)C(Cc4cnn[nH]4)NC(=O)c4ccc(NC(=O)/C(C)=C/c5ccc(O)cc5)cc4)cn3)c(OC)c2O)ccc(C(=O)O)c1O (stereo not drawn) [Compound 10] | – | – | – | – | – | – | ≤ 16 | 63 (≈ 71.1 µM) | 31 (≈ 35 µM) | 250 (≈ 282 µM) | ≤ 16 | ≤ 16 |
| COc1c(NC(=O)c2ccc(NC(=O)c3ccc(NC(=O)C(Cc4cnn[nH]4)NC(=O)c4ccc(NC(=O)/C(C)=C/c5ccc(O)cc5)cc4)nc3)c(OC)c2O)ccc(C(=O)O)c1O (stereo not drawn) [Compound 11] | – | – | – | – | – | – | 1000 (≈ 1130 µM) | 500 (≈ 564 µM) | 4000 (≈ 4520 µM) | 8000 (≈ 9030 µM) | 500 (≈ 564 µM) | 4000 (≈ 4520 µM) |
| COc1c(NC(=O)c2ccc(NC(=O)c3ccc(NC(=O)C(Cc4cnn[nH]4)NC(=O)c4ccc(NC(=O)c5ccc(C#N)cc5)cc4)cn3)c(OC)c2O)ccc(C(=O)O)c1O (stereo not drawn) [Compound 12] | – | – | – | – | – | – | 31 (≈ 36.3 µM) | 250 (≈ 292 µM) | 125 (≈ 146 µM) | 8000 (≈ 9360 µM) | 31 (≈ 36.3 µM) | ≤ 16 |
| COc1c(NC(=O)c2ccc(NC(=O)c3ccc(NC(=O)C(Cc4cnn[nH]4)NC(=O)c4ccc(NC(=O)c5ccc(C#N)cc5)cn4)cn3)c(OC)c2O)ccc(C(=O)O)c1O (stereo not drawn) [Compound 13] | – | – | – | – | – | – | 31 (≈ 36.2 µM) | 125 (≈ 146 µM) | 63 (≈ 73.6 µM) | 1000 (≈ 1170 µM) | 31 (≈ 36.2 µM) | 4000 (≈ 4670 µM) |
| COc1c(NC(=O)c2ccc(NC(=O)c3ccc(NC(=O)C(Cc4cnn[nH]4)NC(=O)c4ccc(NC(=O)/C(C)=C/c5ccc(O)cc5)cn4)cn3)c(OC)c2O)ccc(C(=O)O)c1O (stereo not drawn) [Compound 14] | – | – | – | – | – | – | ≤ 16 | 125 (≈ 141 µM) | 125 (≈ 141 µM) | 4000 (≈ 4510 µM) | 63 (≈ 71 µM) | ≤ 16 |
| C/C(=C\c1ccc(O)cc1)C(=O)Nc1ccc(C(=O)N[C@@H](Cc2c[nH]nn2)C(=O)Nc2ccc(C(=O)Nc3ccc(C(=O)Nc4ccc(C(=O)O)cc4)c(O)c3OC(C)C)nc2)cc1 [Compound 15] | – | – | – | – | – | – | 31 (≈ 35.7 µM) | ≤ 16 | 63 (≈ 72.6 µM) | 250 (≈ 288 µM) | 31 (≈ 35.7 µM) | ≤ 16 |
| C/C(=C\c1ccc(O)cc1)C(=O)Nc1ccc(C(=O)N[C@@H](Cc2c[nH]nn2)C(=O)Nc2ccc(C(=O)Nc3ccc(C(=O)Nc4ccc(C(=O)O)cc4)c(O)c3OC(C)C)nc2)nc1 [Compound 16] | – | – | – | – | – | – | 31 (≈ 35.7 µM) | ≤ 16 | ≤ 16 | 31 (≈ 35.7 µM) | ≤ 16 | ≤ 16 |
| CC(C)Oc1c(NC(=O)c2ccc(NC(=O)[C@H](Cc3c[nH]nn3)NC(=O)c3ccc(NC(=O)c4ccc(C#N)cc4)cc3)cn2)ccc(C(=O)Nc2ccc(C(=O)O)cc2)c1O [Compound 17] | – | – | – | – | – | – | 31 (≈ 37 µM) | 31 (≈ 37 µM) | 125 (≈ 149 µM) | 500 (≈ 597 µM) | 31 (≈ 37 µM) | ≤ 16 |
